The nature of the test: Bubble test, corrosion inhibition performance in brine (LPR). The following applies: Forties synthetic brine, 55° C., CO2 saturated. Here is the method: Corrosion Inhibition Performance in Brine
The tests were carried out using the well-known “bubble test” method, see for instance the discussion in NACE International, Vol. 46, No. 5, pp 46-51 (May 2007), where the corrosion rate is monitored by linear polarisation (LPR). First a baseline corrosion rate in the medium is established, and then corrosion rates with different amounts of inhibitor added are measured.
The detailed conditions for the tests were as follows:
CO2 CO2 Saturated at ambient pressure (˜0.9 bara partial pressure)
Solution 100% Typical “Forties” (North Sea water) synthetic brine as shown below:
• Chloride=42.539 mg/l • Sulphate=0 mg/l • Barium=173 mg/l • Calcium=1.979 mg/l • Strontium=351 mg/l • Magnesium=377 mg/l • Sodium=24.973 mg/l • Potassium=341 mg/l • Bicarbonate=200 mg/l Electrode Fabricated from AISI 1018 (UNS G10180), polished to 600 grit finish, degreased, rinsed, and dried Inhibitor Concentration 4 hour precorrosion without inhibitor, then dose with 10 or 20 mg/kg of inhibitor and evaluate corrosion rate for at least 8 h, then add inhibitor so that the next level of total inhibitor dosage is reached according to Table 1. After each addition the corrosion rate is measured for at least 8 h. Gas and partial Ambient pressure test. Maximum partial pressure 1 pressure bara (less saturated water vapour pressure at test temperature). Corrosion Monitoring LPR±10 mV step perturbation with a 2-minute time constant. A Stearn-Geary constant of 25 mV was used to calculate corrosion rates from LPR data. Corrosion rates were monitored throughout each test with a measurement taken every 30 minutes. […] The corrosion inhibitor bases were formulated as follows prior to testing: 40% base product 4% glacial acetic acid 20% n-butanol 36% water The % protection was calculated from the following equation: % protection=(1−(x/y))*100 wherein x=corrosion rate in the presence of corrosion inhibitor (mm/year) • y=corrosion rate in the absence of corrosion inhibitor (mm/year)

As to “C12-C16 Coco benzyl quaternary amine [Quaternary amine*]”, the “% Protection” value runs as follows: (20 ppm inhibitor) −28.3%; (50 ppm inhibitor) 38.0%; (100 ppm inhibitor) 97.7%.

The values are drawn from patent publication US8372336B2, “Polymeric corrosion inhibitors” (Akzo Nobel Chemicals International B.V., priority 2009, dated 2013).
